From ChEMBL document CHEMBL1146854, “Estimation of the hydrophobicity of 2,4-diphenyl-1,3-oxazoline analogs and QSAR analysis of their ovicidal activity against Tetranychus [corrected] urticae” (Bioorg Med Chem Lett, 2006) come the findings set out here.

Series [1] deals with Tetranychus urticae. Nature of the series: Ovicidal activity against Tetranychus urticae. It counts as functional.
The nature of series [2]: Partition coefficient, log P of the compound. It counts as physicochemical. The note with it: octanol/water.

Values after ≈ are worked out from the molar mass of the structure shown.

The LC50 is the concentration lethal to half of the exposed cells or organisms. By logP is commonly meant a log measure of how a compound divides between an organic and an aqueous phase. Read a high logP as a more lipophilic compound. Regarding `Clc1ccc(C2=NC(c3ccccc3)CO2)cc1` (stereo unspecified), in series [1], the LC50 worked out at 100 mg/L (≈ 388 µM). Further, the logP in series [2] is 4.48. In the same order, the values of `Fc1cccc(Cl)c1C1=NC(c2ccccc2)CO1` (stereo unspecified) are 0.01 mg/L (≈ 0.0363 µM) and 3.45. In the same order, the values of `Cc1cccc(C2=NC(c3ccccc3)CO2)c1` (stereo unspecified) are greater than 1000 mg/L and 4.11. Consider `Fc1cccc(Cl)c1-c1ncco1`, for which the log partition coefficient (logP) in series [2] stood at 1.89.

For the compound `Clc1cccc(C2=NC(c3ccccc3)CO2)c1Cl` (stereo unspecified), the LC50 in series [1] amounted to 10 mg/L (≈ 34.2 µM). Besides, in series [2], the logP came out at 4.28. In the same order, the values of `CCSc1ccccc1C1=NC(c2ccccc2)CO1` (stereo unspecified) are 100 mg/L (≈ 353 µM) and 4.04. Consider `Fc1ccccc1C1=NC(c2ccccc2)CO1` (stereo unspecified), for which the median lethal concentration (LC50) in series [1] worked out at 10 mg/L (≈ 41.4 µM). This compound also had a log partition coefficient (logP) in series [2] of 3.51. Compound `Ic1ccccc1-c1ncco1` gave a logP in series [2] of 2.3. `COc1ccccc1C1=NC(c2ccccc2)CO1` (stereo unspecified): the LC50 in series [1] is 10 mg/L (≈ 39.5 µM). The compound also displayed a log partition coefficient (logP) in series [2] of 3.76.

Turning to `Cc1cccc(C)c1-c1ncco1`, in series [2], the log partition coefficient (logP) was 2.21. `Fc1cccc(F)c1-c1ncco1` displayed a lipophilicity (logP) in series [2] of 1.45.

`COc1ccc(C2=NC(c3ccccc3)CO2)cc1` (stereo unspecified) came in with a 50% lethal concentration (LC50) in series [1] of 100 mg/L (≈ 395 µM). This compound also yielded a logP in series [2] of 3.78. In the same order, the values of `Clc1cccc(C2=NC(c3ccccc3)CO2)c1` (stereo unspecified) are 100 mg/L (≈ 388 µM) and 4.44. In the same order, the values of `Cc1ccccc1C1=NC(c2ccccc2)CO1` (stereo unspecified) are 100 mg/L (≈ 421 µM) and 3.68. Regarding `Brc1ccccc1C1=NC(c2ccccc2)CO1` (stereo unspecified), in series [1], the median lethal concentration (LC50) worked out at 0.1 mg/L (≈ 0.331 µM). The compound further registered a logP in series [2] of 3.69.

Compound `Ic1ccccc1C1=NC(c2ccccc2)CO1` (stereo unspecified) came in with a 50% lethal concentration (LC50) in series [1] of 1 mg/L (≈ 2.86 µM). The log partition coefficient (logP) in series [2] was 3.86.

For the compound `Clc1ccccc1C1=NC(c2ccccc2)CO1` (stereo unspecified), the LC50 in series [1] was 1 mg/L (≈ 3.88 µM). This compound showed a lipophilicity (logP) in series [2] of 3.56.

In turn, `Cc1ccc(C2=NC(c3ccccc3)CO2)cc1` (stereo unspecified) yielded a median lethal concentration (LC50) in series [1] greater than 1000 mg/L. In series [2], this compound gave a lipophilicity (logP) of 4.11. Take `CCOc1ccccc1C1=NC(c2ccccc2)CO1` (stereo unspecified): the LC50 in series [1] was greater than 1000 mg/L. In series [2], the lipophilicity (logP) amounted to 4.22.

`c1ccc(C2=NC(c3ccccc3)CO2)cc1` (stereo unspecified) registered a median lethal concentration (LC50) in series [1] of 10 mg/L (≈ 44.8 µM). The compound also showed a log partition coefficient (logP) in series [2] of 3.56. On to `O=[N+]([O-])c1ccccc1-c1ncco1`, for which the log partition coefficient (logP) in series [2] amounted to 1.27. In series [1], `Clc1cccc(Cl)c1C1=NC(c2ccccc2)CO1` (stereo unspecified) registered an LC50 of 1 mg/L (≈ 3.42 µM). Moreover, the logP in series [2] worked out at 3.69. The compound `FC(F)(F)c1ccccc1C1=NC(c2ccccc2)CO1` (stereo unspecified) gave a median lethal concentration (LC50) in series [1] of 100 mg/L (≈ 343 µM). In series [2], this compound displayed a logP of 3.71. In the same order, the values of `Clc1ccc(C2=NC(c3ccccc3)CO2)c(Cl)c1` (stereo unspecified) are 10 mg/L (≈ 34.2 µM) and 4.4. With `FC(F)(F)c1ccccc1-c1ncco1`, in series [2], the logP stood at 2.15.

Turning to `Clc1ccc(Cl)c(C2=NC(c3ccccc3)CO2)c1` (stereo unspecified), the LC50 in series [1] is 100 mg/L (≈ 342 µM). The compound further gave a logP in series [2] of 4.4. `Fc1cccc(F)c1C1=NC(c2ccccc2)CO1` (stereo unspecified) registered an LC50 in series [1] of 1 mg/L (≈ 3.86 µM). The compound also came in with a lipophilicity (logP) in series [2] of 3.01. In the same order, the values of `COc1cccc(C2=NC(c3ccccc3)CO2)c1` (stereo unspecified) are greater than 1000 mg/L and 3.77. In the same order, the values of `c1ccc(Oc2ccccc2C2=NC(c3ccccc3)CO2)cc1` (stereo unspecified) are 100 mg/L (≈ 317 µM) and 5.61. In the same order, the values of `O=[N+]([O-])c1ccccc1C1=NC(c2ccccc2)CO1` (stereo unspecified) are 100 mg/L (≈ 373 µM) and 2.83.

In series [1], `CSc1ccccc1C1=NC(c2ccccc2)CO1` (stereo unspecified) gave a median lethal concentration (LC50) of 100 mg/L (≈ 371 µM). Besides, in series [2], the logP stood at 3.5.
